Test results: patent US10500167B2, “Droplet-embedded microfibers, and methods and devices for preparing and using same” (TRUSTEES OF PRINCETON UNIVERSITY, priority 2014, dated 2019)

Tests used:
[1] = retention and selective release of cargo from alginate-in-oil-in-alginate fibers; format: physicochemical
Source text: The concentration of alginate-PVA solution in the inner alginate compartment was kept the same as the alginate fiber. As for the cargos, 0.5% (v/v) 200 nm orange fluorescent particles (FluoSpheres, Invitrogen), 1% (w/v) FITC conjugated BSA, or 0.04% (v/v) of 190 nm Dragon Green fluorescent particles (Uniform Dyed Microspheres, Bangs Laboratories, Inc.) were mixed with the alginate solution. For water-based magnetic particles, 2% (v/v) of 1 μm-magnetic polystyrene particles were mixed in the alginate solution. Chemicals not indicated with vendors were purchased from Sigma-Aldrich.
Multicompartment fibers were collected as suspensions in DI water or wound between two rotating needles controlled by a motor (Barnant Motor Mixer, Model No. 700-5412). […] For selective dissolution of the cargos from the oil compartment of the fibers, ethanol (Reagent alcohol, BDH) was added to the fiber suspensions. The de-cross-linking agent, 160 mM sodium citrate (Na3C6H5O7, Sigma-Aldrich) in DI water was used as calcium chelator to degrade the alginate fiber or inner alginate particles.
As a model particle cargo, 200 nm fluorescent nanoparticles were added to the inner alginate particle to produce fluorescent core microfibers (FIG. 2, panel a, and FIG. 8, panel a).
As a non-limiting example, ethanol was used to affect oil phase removal. The oil phase, which was a solution of mineral oil, 5% (v/v) undecanol, and 2 wt % Span 80 surfactant, was slightly miscible with ethanol, and thus was able to slowly escape the oil microcompartments in the fiber in the presence of ethanol. Alginate-in-oil-in-alginate fibers were prepared with 0.3 mg·mL^−1 of a lipophilic fluorescent dye, Nile Red, in the oil droplets, and green fluorescent nanoparticles of 190 nm diameter in the inner alginate particles; one fiber sample was immersed in water, and the second fiber sample was immersed in an ethanol/water solution.

[2] = retention and release of dissolved compounds from hydrophobic PEG-DA droplet-in-fibers; format: physicochemical
Source text: FIG. 18 illustrates hydrophobic droplet-in-fibers wrapped around needles immersed in water. On the left, the fiber precursor solution contained 76 vol % PEG250DA, 20 vol % PEG700DA and 4 vol % photoinitiator. On the right, the fiber precursor solution contained 96 vol % PEG250DA and 4 vol % photoinitiator. Both fibers contained aqueous droplets with 1 wt % erioglaucine (blue dye).

[3] = dissolution of eugenol droplets embedded in the fiber in water; format: physicochemical; conditions: 100% eugenol droplets
Protocol: (§1) For the oil droplet compartment, mineral oil with 2 wt % Span 80 was used in general. For solidifying inner alginate droplets to prevent them from escaping the oil compartment, 5% (v/v) of calcium chloride-saturated undecanol was mixed with the oil solution. The concentrations of the cargos to be carried in the oil compartment were 0.3 mg·mL^−1 for Nile red, 0.8% (v/v) for magnetic particles in oil-phase (EMG 909, FerroTec), and 10 and 20% (v/v) for eugenol. […] The final concentration of undecanol in the oil solution was 5% (v/v). In the case of using just eugenol for the oil compartment, 2 wt % Span 80 was added to eugenol to form stable droplets.
The previously described experiments were conducted with mineral oil as the oil phase.

[4] = tested on: Escherichia coli (E. Coli, S17-1λpir); assay: antibacterial effect of eugenol oil droplets on E. coli cells encapsulated in alginate fibers; format: cell-based
Source text: For the alginate fiber, 0.5-1 wt % sodium alginate (from brown algae) with 0.1-0.25 wt % poly(vinyl alcohol) (PVA; Molecular weight, 31,000-50,000) dissolved in DI water or PBS was used. PVA is a biocompatible polymer. Also, after collecting the fibers, they were rinsed with DI water or PBS, and stored in DI water to allow any water-soluble components in the fiber to be removed. […] For cell encapsulation, the alginate-PVA solution was filtered through 0.22 μm pore-sized filter prior to mixing with cells. The mammalian cells, NIH/3T3 mouse fibroblast cells (ATCC), were cultured in Dulbecco's modified Eagle medium (DMEM; ATCC) supplemented with 10% (v/v) calf bovine serum and 1% (v/v) penicillin. The cells were prepared to be 1-2×10^5 cells·mL^−1 in the final alginate solution. For encapsulating mammalian cells in the alginate fiber, a solution of 0.5 wt % alginate with 0.1 wt % PVA dissolved in PBS was used. The bacterial cells were Escherichia coli (E. Coli, S17-1λpir) that express green fluorescent protein (GFP) from a plasmid, induced by isopropyl β-D-1-thiogalactopyranoside (IPTG). More details on the cells, including plasmid construction, is recited in Drescher, et al., 2014, Curr. Biol. 24:50. The E. coli cells were prepared in the alginate solution to be 4-5×10^6 cells·mL^−1. For encapsulating bacterial cells, a solution of 1 wt % alginate with 0.25 wt % PVA dissolved in PBS was used.
as §1
Multicompartment fibers were collected as suspensions in DI water or wound between two rotating needles controlled by a motor (Barnant Motor Mixer, Model No. 700-5412). Fibers encapsulating the fibroblast cells were collected in DMEM supplemented with 10% calf bovine serum and 1% penicillin, and stored in the 5% CO2-humidified incubator at 37° C. To test the cell viability inside the multicompartment fibers, 2 μM of calcein AM and 4 μM of ethidium-homodimer-1 (EthD-1) from LIVE/DEAD Viability/Cytotoxicity kit for mammalian cells (Molecular Probes) were applied in the DMEM 1 hour prior to the observation under a fluorescent microscope. The cell viability was analyzed with the green (calcein AM) and red (EthD-1) fluorescence images using image analysis software, ImageJ (NIH). E. coli-encapsulated fibers were either collected in LB media containing 1 mM IPTG and 100 μg·mL^−1 Kanamycin (kanamycin sulfate; Fisher). For selective dissolution of the cargos from the oil compartment of the fibers, ethanol (Reagent alcohol, BDH) was added to the fiber suspensions. The de-cross-linking agent, 160 mM sodium citrate (Na3C6H5O7, Sigma-Aldrich) in DI water was used as calcium chelator to degrade the alginate fiber or inner alginate particles.
The growth of bacterial cells, Escherichia coli (E. coli), in the oil droplet-in-alginate fibers (FIG. 2, panel d) was also tested. The E. coli cells encapsulated in the fibers were suspended in the LB medium for 21 hours, and grew well inside the fibers where they completely surrounded the oil droplets (FIG. 9). The oil microcompartments of the fiber can be used to encapsulate hydrophobic drugs or antibacterial chemicals to test their effects on the cells. For example, eugenol is an antibacterial compound found in clove oil. Eugenol was dissolved in the oil compartment, in a solution comprising mineral oil with 5% (v/v) undecanol and 2 wt % Span 80. […]

Molecule: fluorescein isothiocyanate (FITC) conjugated bovine serum albumin [FITC-conjugated BSA]
- time over which fluorescence of encapsulated cargo was observed ([1]; in inner alginate particle, fiber stored in DI water): at least 20 hours

Molecule: CCN(CC)c1ccc2nc3c4ccccc4c(=O)cc-3oc2c1 [Nile Red]
- red fluorescence in the fibers ([1]; ethanol/water solution, after a longer time): no further red fluorescence was observed in the fibers
- red fluorescence in the oil microcompartments ([1]; fiber immersed over 18 hours in water): red fluorescence of the Nile Red dye in the oil microcompartments was observed

Molecule: CCN(Cc1cccc(S(=O)(=O)[O-])c1)c1ccc(C(=C2C=CC(=[N+](CC)Cc3cccc(S(=O)(=O)[O-])c3)C=C2)c2ccccc2S(=O)(=O)[O-])cc1.[Na+].[Na+] [erioglaucine]
- retention of dissolved compound in aqueous droplets ([2]; PEG-DA (MW=250 g/mol) fiber with 4 vol % photoinitiator): remained within the aqueous compartments
- release of dye from fiber ([2]; fiber precursor 76 vol % PEG250DA, 20 vol % PEG700DA, 4 vol % photoinitiator, immersed in water): allowed the blue dye to diffuse out of the fiber

Molecule: C=CCc1ccc(O)c(OC)c1 [eugenol]
- diameter of eugenol droplets embedded in the fiber after dissolution ([3]; over a period of 2 hours): 50 μm
- diameter of eugenol droplets embedded in the fiber, initial ([3]; start): 120 μm
- growth of E. coli around the oil droplets ([4]; 20% (v/v) eugenol droplets, after 3 hours): slowed down around the oil droplets
- growth of E. coli around the rim of the droplets ([4]; 20% (v/v) eugenol droplets, after 15 hours): no growth was observed around the rim of the droplets
- cell population around the oil droplets ([4]; 20% (v/v) eugenol-oil droplets): significant decrease in the cell population around the oil droplets
- cell growth around the eugenol droplets compared with oil droplets with no eugenol ([4]; eugenol up to 10% (v/v) in oil droplets): no significant difference in the cell growth
- overall growth rate of E. coli inside the fiber ([4]; eugenol up to 10% (v/v) in oil droplets, qualitative): reduction in the overall growth rate of E. coli
- growth of GFP-expressing E. coli in fiber ([4]; up to 10% (v/v) eugenol droplets, after 15 hours): grew around the oil droplets and covered most of the fibers completely
